The values below are quoted from earlier work in PMC6136660 (Steroids, 2018).

The subject of this data set is growth and bone. Further details: method as in PMID 24014378. The conditions noted are these: 30 mg/kg/day, pre-clinical models; cited from earlier work.

As to `C[C@@H]1C[C@H]2[C@@H]3CCC4=CC(=O)C=C[C@]4(C)C3=CC[C@]2(C)[C@@]1(O)C(=O)CO` [vamorolone], the “severe stunting of growth and osteopenia” value is “did not”.
